Patent publication US10294202B2, “Pyrrolidinones as herbicides” (FMC Corporation, priority 2013, dated 2019)

Tests used:
nutsedge, yellow = assay: Test C pre-/postemergence herbicide test; type: in vivo, Cyperus esculentus; conditions: Preemergence; for Nutsedge, Yellow plant response rating: 31 g ai/ha, scale 0 to 100, 0 is no effect and 100 is complete control
Procedure, shortened: (§1)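 Response scores range from 0, meaning no effect, to 100, meaning complete control, assigned visually by comparison with controls roughly two weeks (13 to 15 days) after spraying. Applications were made preemergence to seeded loam–sand soil and postemergence to 1- to 4-leaf plants.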

barnyardgrass [1] = assay: Test A pre-/postemergence herbicide test; type: in vivo, Echinochloa crus-galli; conditions: for Barnyardgrass plant response rating: Preemergence, visual rating on 0 to 100 scale (0 no effect, 100 complete control)
Procedure, shortened: (§2)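 Scoring was visual, relative to untreated controls, on a 0–100 scale after about 10 greenhouse days. Preemergence treatment used a directed soil spray over seeded loam/sand; postemergence treatment targeted one- to two-leaf plants of 2–10 cm.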

ducksalad = assay: Test B flooded paddy test; type: in vivo, Heteranthera limosa; conditions: 250 g ai/ha, Flood; scale of 0 to 100 where 0 is no effect and 100 is complete control
Procedure, shortened: (§3)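 First, plants reach the 2-leaf stage; next, pots are flooded to 3 cm and compound is delivered into the water; finally, after 13 to 15 greenhouse days at constant depth, injury is graded visually from 0 to 100 against controls.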

rice = assay: Test B flooded paddy test; type: in vivo, Oryza sativa; conditions: 250 g ai/ha, Flood; scale of 0 to 100 where 0 is no effect and 100 is complete control
Procedure, shortened: as §3

pigweed = assay: Test A pre-/postemergence herbicide test; type: in vivo, Amaranthus retroflexus; conditions: for Pigweed plant response rating: Preemergence, visual rating on 0 to 100 scale (0 no effect, 100 complete control)
Procedure, shortened: as §2

foxtail, giant = assay: Test C pre-/postemergence herbicide test; type: in vivo, Setaria faberii; conditions: Preemergence; for Foxtail, Giant plant response rating: 31 g ai/ha, scale 0 to 100, 0 is no effect and 100 is complete control
Procedure, shortened: as §1

corn [2] = assay: Test C pre-/postemergence herbicide test; type: in vivo, Zea mays; conditions: Preemergence; for Corn plant response rating: 31 g ai/ha, scale 0 to 100, 0 is no effect and 100 is complete control
Procedure, shortened: as §1

corn [3] = assay: Test A pre-/postemergence herbicide test; type: in vivo, Zea mays; conditions: for Corn plant response rating: Preemergence, visual rating on 0 to 100 scale (0 no effect, 100 complete control)
Procedure, shortened: as §2

barnyardgrass [4] = assay: Test B flooded paddy test; type: in vivo, Echinochloa crus-galli; conditions: 250 g ai/ha, Flood; scale of 0 to 100 where 0 is no effect and 100 is complete control
Procedure, shortened: as §3

soybean = assay: Test C pre-/postemergence herbicide test; type: in vivo, Glycine max; conditions: Preemergence; for Soybean plant response rating: 31 g ai/ha, scale 0 to 100, 0 is no effect and 100 is complete control
Procedure, shortened: as §1

[5] = 125 g ai/ha, scale 0 to 100 (0 no effect, 100 complete control)
[6] = Postemergence, 125 g ai/ha, 0 to 100 scale, 0 no effect, 100 complete control
[7] = Postemergence, 500 g ai/ha, 0 to 100 scale (0 no effect, 100 complete control)
[8] = preemergence, 500 g ai/ha, 0 to 100 scale (0 no effect, 100 complete control)
[9] = preemergence, 500 g ai/ha, 0 to 100 scale
[10] = 250 g ai/ha, scale 0 to 100 (0 no effect, 100 complete control)

SMILES | Nutsedge, Yellow plant response rating (nutsedge, yellow) | Plant response rating, Nutsedge, Yellow (nutsedge, yellow; 62 g ai/ha, scale 0 to 100) | Plant response rating, Nutsedge, Yellow (nutsedge, yellow; [5]) | Plant response rating, Barnyardgrass (barnyardgrass [1]; [6]) | Plant response rating, Barnyardgrass (barnyardgrass [1]; [7]) | Barnyardgrass plant response rating (barnyardgrass [1]; 125 g ai/ha) | Plant response rating, Barnyardgrass (barnyardgrass [1]; [8]) | Plant response rating, Ducksalad (ducksalad) | Plant response rating, Rice (rice) | Plant response rating, Pigweed (pigweed; [6]) | Plant response rating, Pigweed (pigweed; [7]) | Pigweed plant response rating (pigweed; 125 g ai/ha) | Plant response rating, Pigweed (pigweed; [9]) | Foxtail, Giant plant response rating (foxtail, giant) | Plant response rating, Foxtail, Giant (foxtail, giant; 62 g ai/ha, scale 0 to 100) | Plant response rating, Foxtail, Giant (foxtail, giant; [5]) | Plant response rating, Foxtail, Giant (foxtail, giant; [10]) | Corn plant response rating (corn [2]) | Plant response rating, Corn (corn [2]; 62 g ai/ha, scale 0 to 100) | Plant response rating, Corn (corn [2]; [5]) | also measured
O=C1NCC(c2cccc(Br)c2)C1C(=O)Nc1ccccc1F (stereo not shown) [Compound 66] | 0 | 0 | 0 | 80 | 80 | 80 | 90 | 75 | 0 | 0 | 0 | 0 | 0 | 20 | 75 | 85 | 95 | 0 | 0 | 10 | Plant response rating, Corn (corn [2]; [10]): 20; Plant response rating, Corn (corn [3]; [6]): 20; Plant response rating, Corn (corn [3]; [7]): 80; Corn plant response rating (corn [3]; 125 g ai/ha): 20; Plant response rating, Corn (corn [3]; [9]): 20; Plant response rating, Barnyardgrass (barnyardgrass [4]): 0; Soybean plant response rating (soybean): 15; Plant response rating, Soybean (soybean; 62 g ai/ha, scale 0 to 100): 20; Plant response rating, Soybean (soybean; [5]): 20
O=C1NCC(c2cccc(OC(F)(F)F)c2)C1C(=O)Nc1cccc(F)c1F (stereo not shown) [Compound 68] | 10 | 10 | 10 | 70 | 80 | 80 | 90 | 90 | 25 | 40 | 60 | 0 | 30 | 85 | 90 | 90 | 95 | 15 | 25 | 25 | Plant response rating, Corn (corn [2]; [10]): 50; Plant response rating, Corn (corn [3]; [6]): 20; Plant response rating, Corn (corn [3]; [7]): 90; Corn plant response rating (corn [3]; 125 g ai/ha): 0; Plant response rating, Corn (corn [3]; [9]): 0; Plant response rating, Barnyardgrass (barnyardgrass [4]): 40; Soybean plant response rating (soybean): 0; Plant response rating, Soybean (soybean; 62 g ai/ha, scale 0 to 100): 0; Plant response rating, Soybean (soybean; [5]): 10
